Reference: patent US20070254871A1, “Compounds for the Treatment of Inflammation of the Central Nervous System” (Neurotec Pharma, S.L., priority 2004, published 2007)

System: microglial reaction in rat hippocampal lesion
Experiment: Microglial reaction in rat hippocampal lesion (stereotaxic AMPA injection, IB4 histochemistry)
Assay type: in vivo
Conditions: for Density of reactive microcytes / Hippocampal microgliosis area: n=4, mean±S.E.M.
Procedure: This model relies on the acute stereotaxic over-activation of rat glutamate hippocampal receptors that results in a neurodegenerative process characterized by a neuronal loss with astroglial and microglial reactions (cf. F. Bernal et al., Hippocampus 2000, vol. 10, pp. 296-304; F. Bernal et al., Exp. Neurol. 2000, vol. 161, pp. 686-95). In this neurodegenerative model rats were anaesthetized with equithesin (a mixture of chloral hydrate and pentobarbital sodium; 0.3 ml/100 g body weight, i.p.) and placed on a Kopf stereotaxic frame with the incisor bar set at −3.3 mm. Intracerebral injections aimed at the dorsal hippocampus were performed at 3.3 mm caudal to bregma, 2.2 mm lateral and 2.9 mm ventral from dura (cf. G. Paxinos et al., “The rat brain in stereotaxic coordinates”, Sydney: Academic Press 1986). A volume of 0.5 μl was injected over a period of 5 min.
Four different groups of rats received two injections in a 2-hour interval as follows: a) sham rats (n=4) received two injections of PBS; b) AMPA rats (α-amino-3-hydroxy-5-methylisoxazole-4-propionic acid) (n=4) received the first injection of 5.4 mM AMPA and the second of PBS; c) diazoxide rats (n=4) received two injections of 50 μM diazoxide; d) AMPA+diazo rats (n=4) received 5.4 mM AMPA+50 μM diazoxide in the first injection and 50 μM diazoxide in the second injection. All rats were sacrificed 24 hours after the lesion.
Rats were transcardially perfused with 300 ml of 0.1 M phosphate buffer (PB, pH 7.4) followed by 300 ml ice-cold fixative (flow rate 20 ml/min). The fixative consisted of 4% (w/v) paraformaldehyde in PB. Brains were removed, crioprotected with 15% (w/v) sucrose in PB and then, frozen with dry ice. Cryostat sections (12 μm) were obtained at the level of dorsal hippocampus (−3.3 mm to bregma). Isolectine B4 (IB4) histochemistry was performed to identify the microglial reaction (cf. C. A. Colton et al., J. Histochem. Cytochem. 1992, vol. 40, pp. 505-12).
Microgliosis area evaluation was performed on IB4 positive stained sections, which were analyzed using a computer-assisted image analysis system (OPTIMAS®, BioScan Inc., Washington, USA). IB4-stained reactive microcytes were counted at ×100 magnification using an ocular grid mounted on a transmission light microscope (Axiolab, Zeiss, Göttingen, Germany). One-way ANOVA was used to compare differences between groups, followed by the LSD post-hoc test. Results were expressed as mean±S.E.M. All analyses were performed with the computer program STATGRAPHICS (STSC Inc., Rockville, Md., USA).

[1] = substance alone injected into dorsal hippocampus (diazoxide: two injections of 50 μM; AMPA: 5.4 mM then PBS), 24 hours
[2] = substance alone injected into dorsal hippocampus (diazoxide: two injections of 50 μM; AMPA: 5.4 mM then PBS), sacrificed 24 hours after the lesion
[3] = AMPA+diazo group: 5.4 mM AMPA+50 μM diazoxide in first injection, 50 μM diazoxide in second, 24 hours

Cc1onc(O)c1CC(N)C(=O)O (stereo not drawn) [AMPA, α-amino-3-hydroxy-5-methylisoxazole-4-propionic acid]
Density of reactive microcytes [1]: 645±59 cells/mm^2
Hippocampal microgliosis area [2]: 0.44±0.07 mm^2

CC1=NS(=O)(=O)c2cc(Cl)ccc2N1 [diazoxide]
Microgliosis area as % of the AMPA group (AMPA+diazo group versus AMPA group, 24 hours): 37%
Density of reactive microcytes [3]: 603±56 cells/mm^2
Hippocampal microgliosis area [3]: 0.16±0.02 mm^2
Effect on microglial activation (in words) (diazoxide-treated animals compared with AMPA-treated animals): reduces microglial activation to sham values
Density of reactive microcytes [1]: 555±91 cells/mm^2
Hippocampal microgliosis area [2]: 0.19±0.03 mm^2
